# Reference: ChEMBL document CHEMBL1127767, “Synthesis of 19-hydroxy docetaxel from a novel baccatin” (Bioorg Med Chem Lett, 1994)
# What was measured:
# [1] = tested on: P388; experiment: Cytotoxicity against P388 leukemia cells was calculated; assay type: functional, cell-based; conditions: Mus musculus
# [2] = Inhibitory activity towards microtubule disassembly relative to paclitaxel evaluated as ID50 compound/ID50 paclitaxel; assay type: functional
SMILES,IC50 [1],ID50 ratio [2]
CC(=O)O[C@@]12CO[C@@H]1C[C@H](O)[C@@]1(CO)C(=O)[C@H](O)C3=C(C)[C@@H](OC(=O)[C@H](O)[C@@H](NC(=O)OC(C)(C)C)c4ccccc4)C[C@@](O)([C@@H](OC(=O)c4ccccc4)[C@H]21)C3(C)C,0.07 µg/mL,0.4
CC(=O)O[C@@]12CO[C@@H]1C[C@H](O)[C@@]1(C)C(=O)[C@H](O)C3=C(C)[C@@H](OC(=O)[C@H](O)[C@@H](NC(=O)OC(C)(C)C)c4ccccc4)C[C@@](O)([C@@H](OC(=O)c4ccccc4)[C@H]21)C3(C)C,–,0.6
